From US20220323406A1, “METHODS AND COMPOSITIONS FOR DIFFERENTIATING STEM CELLS” (Massachusetts Institute of Technology, priority 2019, published 2022)
Counter-ions that a name gives are not always drawn.

Legend:
[1] = system: ENR+CD organoids (ISC to Paneth cell differentiation); assay: Primary screen: basal (non-stimulated) lysozyme secretion LYZ.NS, 2.5-D 384-well ENR+CD organoid differentiation; type: cell-based, mouse; settings: primary screen; for Dose.FC.LYZ.NS: FC relative to plate median; for Z.LYZ.NS: standard z score
Description: (§1) High-throughput screening.

[2] = system: ENR+CD organoids (ISC to Paneth cell differentiation); assay: Primary screen: CCh-stimulated lysozyme secretion LYZ.S, 2.5-D 384-well ENR+CD organoid differentiation; type: cell-based, mouse; settings: primary screen, FC relative to plate median
Description: as §1

[3] = system: ENR+CD organoids; assay: Primary screen: ATP (CellTiter-Glo 3D, CTG) cell number/viability, 2.5-D 384-well ENR+CD organoids; settings: primary screen; for Dose.FC.CTG: FC relative to plate median; for Z.CTG: standard z score;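 as to all read-outs here: compounds given at plating and again on day 3 over a 6-day differentiation from ENR+CV stem-cell-enriched precursors, ATP measured on day 6, plate median as control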

Structure (SMILES) | Dose.FC.LYZ.NS ([1]; dose 0.08 uM) [log2 fold change] | Z.LYZ.NS ([1]; dose 0.08 uM) | Dose.FC.LYZ.NS ([1]; dose 0.40 uM) [log2 fold change] | Z.LYZ.NS ([1]; dose 0.40 uM) | Dose.FC.LYZ.NS ([1]; dose 2.00 uM) [log2 fold change] | Z.LYZ.NS ([1]; dose 2.00 uM) | Dose.FC.LYZ.NS ([1]; dose 10.00 uM) [log2 fold change] | Z.LYZ.NS ([1]; dose 10.00 uM) | Dose.FC.LYZ.S ([2]; dose 0.08 uM) [log2 fold change] | Dose.FC.LYZ.S ([2]; dose 0.40 uM) [log2 fold change] | Dose.FC.LYZ.S ([2]; dose 2.00 uM) [log2 fold change] | Dose.FC.LYZ.S ([2]; dose 10.00 uM) [log2 fold change] | Dose.FC.CTG ([3]; dose 0.08 uM) [log2 fold change] | Dose.FC.CTG ([3]; dose 0.40 uM) [log2 fold change] | Dose.FC.CTG ([3]; dose 2.00 uM) [log2 fold change] | Dose.FC.CTG ([3]; dose 10.00 uM) [log2 fold change] | Z.CTG ([3]; dose 0.08 uM) | Z.CTG ([3]; dose 0.40 uM) | Z.CTG ([3]; dose 2.00 uM) | Z.CTG ([3]; dose 10.00 uM)
Cc1c(C(=O)NN2CCCCC2)nn(-c2ccc(Cl)cc2Cl)c1-c1ccc(Cl)cc1 [Rimonabant] | 0.108 | 0.936 | −0.063 | −0.545 | −0.054 | −0.467 | −0.044 | −0.385 | 0.089 | −0.003 | −0.053 | −0.098 | 0.256 | 0.206 | 0.235 | 0.063 |  |  |  | 
O=C(NC[C@H]1CN(c2ccc(N3CCOCC3=O)cc2)C(=O)O1)c1ccc(Cl)s1 [Rivaroxaban] | 0.108 | 0.941 | −0.029 | −0.248 | 0.153 | 1.336 | −0.045 | −0.390 | 0.136 | −0.027 | 0.063 | −0.048 | 0.021 | 0.195 | 0.052 | 0.044 |  |  |  | 
CN(C)CCc1c[nH]c2ccc(Cn3cncn3)cc12 [Rizatriptan Benzoate] | 0.070 | 0.613 | 0.148 | 1.289 | 0.027 | 0.238 | 0.000 | −0.003 | 0.179 | 0.019 | −0.009 | 0.105 | 0.214 | 0.109 | 0.126 | −0.054 |  |  |  | 
COc1cc2c(cc1OC)[C@@H]1Cc3ccc(OC)c(OC)c3CN1CC2 [Rotundine] | 0.124 | 1.082 | 0.032 | 0.282 | 0.072 | 0.623 | 0.126 | 1.100 | 0.151 | 0.049 | 0.080 | 0.095 | 0.359 | 0.343 | 0.190 | 0.227 |  |  |  | 
CC(=O)OCC(=O)NCCCOc1cccc(CN2CCCCC2)c1 [Roxatidine Acetate HCl] | 0.149 | 1.295 | −0.029 | −0.256 | −0.001 | −0.009 | −0.061 | −0.534 | 0.035 | 0.099 | −0.053 | −0.104 | −0.040 | 0.021 | −0.103 | −0.236 |  |  |  | 
Cc1nn(-c2ccccc2)c(C)c1/C=N/N1CCN(Cc2ccccc2)CC1 [SANT-1] | 0.056 | 0.485 | 0.000 | 0.002 | 0.175 | 1.528 | −0.049 | −0.430 | 0.112 | 0.024 | 0.101 | −0.120 | 0.308 | 0.078 | 0.137 | −0.042 | 0.736 | 0.186 | 0.327 | −0.100
CCn1c(N)c(C(=O)NC)c(=O)c2ccc(C#C[C@@](C)(O)COC)nc21 [SAR131675] | 0.055 | 0.483 | 0.089 | 0.774 | 0.021 | 0.181 | −0.088 | −0.766 | 0.148 | 0.096 | 0.026 | 0.000 | 0.175 | −0.084 | 0.071 | 0.062 | 0.419 | −0.201 | 0.169 | 0.149
C[S+]([O-])c1ccc(-c2nc(-c3ccc(F)cc3)c(-c3ccncc3)[nH]2)cc1 (centres unmarked) [SB203580] | 0.092 | 0.805 | 0.127 | 1.109 | 0.052 | 0.453 | 0.023 | 0.199 | 0.148 | 0.098 | 0.077 | 0.069 | 0.201 | 0.149 | 0.237 | 0.182 | 0.479 | 0.356 | 0.567 | 0.435
Cc1cc(NC(=O)Nc2ccc(N(C)C)cc2)c2cc(F)cc(F)c2n1 [SB408124] | 0.172 | 1.494 | 0.134 | 1.168 | 0.084 | 0.730 | −0.070 | −0.607 | 0.198 | 0.193 | 0.082 | −0.148 | 0.410 | 0.334 | 0.364 | 0.091 | 0.978 | 0.799 | 0.869 | 0.216
O=C1NC(=O)C(c2ccccc2[N+](=O)[O-])=C1Nc1ccc(O)c(Cl)c1 [SB415286] | 0.145 | 1.262 | 0.012 | 0.101 | 0.118 | 1.024 | −0.016 | −0.136 | 0.159 | −0.008 | −0.053 | −0.042 | 0.221 | −0.004 | −0.097 | 0.123 | 0.527 | −0.011 | −0.231 | 0.293
O=C(Nc1ccccc1Br)N[C@@H]1CCN(c2ccc(C(F)(F)F)cn2)C1 [SB705498] | 0.074 | 0.642 | −0.050 | −0.433 | −0.001 | −0.008 | −0.018 | −0.154 | 0.094 | 0.023 | −0.030 | −0.023 | 0.133 | −0.043 | −0.004 | −0.037 | 0.318 | −0.102 | −0.009 | −0.089
